Legend:
[1] = system: Oriental Cockroach; assay: Oriental Roach Test; format: in vivo, Blatta orientalis (Orthoptera); details: 24 h
Description: A rearing pan of late instar (3-4 months old) roaches is placed in a cold room for about 1 hour. Ten nymphs are taken from the pan and placed in each cage and the caged insects are kept at 70°-80° F. for 1 hour. The test cages are then sprayed in the manner indicated above in the milkweed bug test using 5 ml. of a formulation containing a specified amount of the insecticide. The test cages are held for 72 hours during which time the cockroaches are neither fed nor watered. Controls consist of 2 unsprayed cages, two cages sprayed with the formulation alone and 2 cages with a formulation containing 1000 ppm of heptachlor. Mortality counts are made 24 hours after spraying by shaking the cages lightly. All cockroaches remaining in the bottom are counted as dead.

[2] = system: Boll Weevil; assay: Field trial (first summer), topical; format: in vivo, Anthonomus grandis; details: .078125 μg/μl
Description: (§1) In a variation of the above test, 1 microliter of a test solution containing a predetermined number of micrograms of benzimidazole was applied directly to larvae or adult insects.
(§2) During the previous summer similar field trials were conducted employing the same tests as heretofore but with some additional species of insects not included in the later tests. The results listed below are for tests in which an insect mortality was established by a given application route and at a given concentration in a particular test. The same 0 - 9 scoring system is used as is the designation of compounds by alphabetical symbols.

[3] = system: Southern Corn Rootworm Adults; assay: Field trial, contact poison test; format: in vivo
Method in brief: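 Contact spray, atomizer 10 psi, arm's length, several concentrations; infested plants in water bottles, stems wrapped in cellucotton, plants spaced apart. Scored 24, 48, 72 h; scale 0–9 by percent mortality.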

[4] = system: Southern Corn Rootworm Adults; assay: Field trial, stomach poison test; format: in vivo
Method in brief: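 Leaves from infested host plants were sprayed (atomizer, 10 psi) or dipped in compound solutions at several concentrations, air-dried, then placed in Petri dishes with five or ten insects each. One or two replicates, usually two or three rates; mortality read at 24, 48 and 72 h on a 0–9 scale.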

[5] = system: House Fly; assay: Housefly (Contact) Test; format: in vivo, Musca domestica (Diptera); details: 50 ppm, 24 h
Description: Rearing cages containing four-day old adult house flies are chilled at 35°-40° F. for about 1 hour. One hundred flies are transferred from the rearing cage to each test cage using a small scoop. The caged flies are kept for 1-2 hours at 70°-80° F. The cages are sprayed in the same manner as described for the milkweed bug with 5 ml. of the test formulation. Two unsprayed cages are held as controls and two cages are sprayed with a 50 ppm DDT formulation as a reference standard. Mortality counts are made 24 hours after spraying. […] The same rating scale is employed as heretofore.

[6] = system: Confused Flour Beetle; assay: Field trial (first summer), topical; format: in vivo; details: .3125 μg/μl
Description: as §1, §2

[7] = system: Picnic Beetle; assay: Field trial (first summer), topical; format: in vivo; details: .078125 μg/μl
Description: as §1, §2

[8] = system: Boll Weevil; assay: Boll Weevil Test; format: in vivo, Anthonomus grandis (Coleoptera); details: 48 h
Text: The procedure is identical to that employed for the Mexican bean beetle and the Southern armyworm, except that 10 adult boll weevils are placed on cotton leaves that have been dipped into formulations of the test compounds. The same rating scale is used.

[9] = system: Two-spotted Spider Mite; assay: Two-spotted Spider Mite test; format: in vivo, Tetranychus urticae (Acarina); details: 25 ppm, 48 h
Description: The procedure in this test is the same as that in the previous aphid test, except that about 100 two-spotted spider mites from a stock colony raised on squash plants are transferred to a cut squash cotyledon. The mortality is estimated 48 hours after spraying. The same rating scale is used.

[10] = Solubility of sodium salt; format: physicochemical

Compound: O=[N+]([O-])c1cc(C(F)(F)F)cc2nc(C(F)(F)F)[nH]c12.[Na] [B, 2,6-bis(trifluoromethyl)-4-nitrobenzimidazole, sodium salt]
- mortality rating ([1]; 25 ppm): .5
- mortality rating ([1]; 100 ppm): 3.5
- insect mortality rating [2]: 9 (91-100 percent mortality)
- average mortality rating ([3]; 25 ppm): 0 (0-10 percent)
- average mortality rating ([3]; 50 ppm): 3
- average mortality rating ([3]; 100 ppm): 8
- average mortality rating ([4]; 25 ppm): 4
- average mortality rating ([4]; 50 ppm): 5
- average mortality rating ([4]; 100 ppm): 9 (91-100 percent mortality)
- mortality rating [5]: 8.5
- insect mortality rating [6]: 9 (91-100 percent mortality)
- insect mortality rating [7]: 9 (91-100 percent mortality)
- mortality rating ([8]; 25 ppm): 8.5
- mortality rating ([8]; 250 ppm): 8.5
- mortality rating [9]: 8.5
- solubility in acid ([10]; acid): insoluble in acid
- solubility in water ([10]; water): water soluble
